According to patent publication US20250235499A1, “ANTI-OVARIAN CANCER PHARMACEUTICAL COMPOSITION AND ACTION TARGET THEREOF” (Zhejiang Chinese Medical University, priority 2024, published 2025):

Tests used:
[1] = system: Hey ovarian cancer cells; assay: Colony formation with MCM2 knockdown or overexpression; format: cell-based, human
Experimental: (§1) SKOV3 and Hey ovarian cancer cells in logarithmic growth phase were knocked down with MCM2 (Control group, sh-NC group, sh-MCM2 group) and overexpressed with MCM2 (Control group, OE-NC group, OE-MCM2 group). The original culture medium was discarded, washed with PBS buffer, and digested with 0.1% trypsin. A corresponding culture medium was added to prepare a cell suspension. Cells were counted using a hemocytometer and a cell concentration was quantified at 10^3 cells/mL. 1500 μL of each well was inoculated into a 6 well plate, with 3 parallel wells in each group, and incubated in a 37° C. incubator containing 5% CO2 for 12 days. The medium was changed every three days. After the cultivation time was over, the six well plate was taken out, and the original culture medium was poured out. An appropriate amount of 4% paraformaldehyde was added to each well and fixed for 30 minutes. The plate was washed twice with a PBS buffer after pouring out the paraformaldehyde, an appropriate amount of 1% crystal violet solution was added for staining for 10 minutes, the crystal violet solution was poured out, and the plate was washed twice with PBS. Photos were taken, and the number of cell clones formed was counted. After knocking down MCM2 on the SKOV3 and Hey ovarian cancer cells and intervening with CA, BDMC, and combination administration, the results were shown in FIGS. 17A-17B. In FIGS. 17A-17B, A represented the formation of SKOV3 cell clones; and B represented the formation of Hey cell clones. Compared with the sh-NC group, #P<0.05, ##P<0.01; compared with the sh-NC+CA+BDMC group, &P<0.05, &&P<0.01; and ** P<0.01. In FIGS. 18A-18B, A represented the formation of SKOV3 cell clones; and B represented the formation of Hey cell clones. Compared with the OE-NC group, #P<0.05, ##P<0.01; compared with the OE-NC+CA+BDMC group, &P<0.05, &&P<0.01; and *P<0.05; and compared with the OE-MCM2+CA+BDMC group, ΔP<0.05, ΔΔP<0.01; and *P<0.05, ** P<0.01.

[2] = system: SKOV3 ovarian cancer cells; assay: as above; format: cell-based, human
Experimental: as §1

[3] = system: CDK4, Cyclin D1, P21 in Hey cells; assay: Expression of cell cycle related proteins in cells; format: cell-based, human
[4] = system: E-cadherin, N-cadherin, Vimentin in SKOV3 cells; assay: Expression of EMT related proteins in cells; format: cell-based, human
[5] = system: E-cadherin, N-cadherin, Vimentin in Hey cells; assay: Expression of EMT related proteins in cells; format: cell-based, human
[6] = system: MCM2, CDK4, Cyclin D1, P21; assay: Immunohistochemical assay of tumor body cell cycle related proteins in tumor bearing nude mice; format: in vivo, BALB/c nude mice; conditions: nude mouse tumor body, compared to the Control group
Experimental: The immunohistochemistry of tumor body cyclin in tumor bearing nude mice after intervention with DDP, CA, BDMC, and combined administration was shown in FIG. 28. The image was magnified by 400×, with a scale of 10 μM. The expression of MCM2, CDK4, and Cyclin D1 proteins in the CA group, BDMC group, and CA+BDMC group decreased compared to the Control group; and the expression of MCM2, CDK4, and Cyclin D1 proteins in the CA+BDMC group decreased compared to the CA group and BDMC group. The expression of P21 protein in the CA group, BDMC group, and CA+BDMC group increased compared to the Control group; and the expression of P21 protein in the CA+BDMC group increased compared to the CA group and BDMC group.

[7] = system: E-cadherin, N-cadherin, Vimentin; assay: Western Blot of tumor body EMT related proteins in tumor bearing nude mice; format: in vivo, BALB/c nude mice; conditions: nude mouse tumor body, compared to the Control group
Excerpt: The expression of EMT related proteins was shown in FIG. 30: (1) represented the Control group; (2) represented the DDP group; (3) represented the CA group; (4) represented the BDMC group; and (5) represented the CA+BDMC group.

[8] = Hey OE-MCM2 cells (MCM2 overexpression), vs OE-MCM2 group
[9] = Hey OE-NC cells (empty vector), vs OE-NC group
[10] = Hey sh-MCM2 cells (MCM2 knockdown), vs sh-MCM2 group
[11] = Hey sh-NC cells (empty vector), vs sh-NC group
[12] = SKOV3 OE-MCM2 cells (MCM2 overexpression), vs OE-MCM2 group
[13] = SKOV3 OE-NC cells (empty vector), vs OE-NC group
[14] = SKOV3 sh-MCM2 cells (MCM2 knockdown), vs sh-MCM2 group
[15] = SKOV3 sh-NC cells (empty vector), vs sh-NC group

COc1ccc(-c2coc3cc(O)ccc3c2=O)cc1O [CA, calycosin]
number of plaques formed by cloning [1, 8]: no significant change
number of plaques formed by cloning [1, 9]: significantly reduced
number of plaques formed by cloning [1, 10]: no significant change
number of plaques formed by cloning [1, 11]: significantly reduced
number of plaques formed by cloning [2, 12]: no significant change
number of plaques formed by cloning [2, 13]: significantly reduced
number of plaques formed by cloning [2, 14]: no significant change
number of plaques formed by cloning [2, 15]: significantly reduced
expression of CDK4 [3, 8]: no significant change
expression of Cyclin D1 [3, 8]: no significant change
expression of P21 [3, 8]: no significant change
expression of CDK4 [3, 9]: significantly decreased
expression of Cyclin D1 [3, 9]: significantly decreased
expression of P21 [3, 9]: significantly increased
expression of CDK4 [3, 10]: no significant change
expression of Cyclin D1 [3, 10]: no significant change
expression of P21 [3, 10]: no significant change
expression of CDK4 [3, 11]: significantly decreased
expression of Cyclin D1 [3, 11]: significantly decreased
expression of P21 [3, 11]: significantly increased
expression of E-cadherin [4, 12]: no significant change
expression of N-cadherin [4, 12]: no significant change
expression of Vimentin [4, 12]: no significant change
expression of E-cadherin [4, 13]: significantly increased
expression of N-cadherin [4, 13]: significantly decreased
expression of Vimentin [4, 13]: significantly decreased
expression of E-cadherin [4, 14]: no significant change
expression of N-cadherin [4, 14]: no significant change
expression of Vimentin [4, 14]: no significant change
expression of E-cadherin [4, 15]: significantly increased
expression of N-cadherin [4, 15]: significantly decreased
expression of Vimentin [4, 15]: significantly decreased
expression of E-cadherin [5, 8]: no significant change
expression of N-cadherin [5, 8]: no significant change
expression of Vimentin [5, 8]: no significant change
expression of E-cadherin [5, 9]: significantly increased
expression of N-cadherin [5, 9]: significantly decreased
expression of Vimentin [5, 9]: significantly decreased
expression of E-cadherin [5, 10]: no significant change
expression of N-cadherin [5, 10]: no significant change
expression of Vimentin [5, 10]: no significant change
expression of E-cadherin [5, 11]: significantly increased
expression of N-cadherin [5, 11]: significantly decreased
expression of Vimentin [5, 11]: significantly decreased
expression of CDK4 protein (immunohistochemistry) [6]: decreased
expression of Cyclin D1 protein (immunohistochemistry) [6]: decreased
expression of MCM2 protein (immunohistochemistry) [6]: decreased
expression of P21 protein (immunohistochemistry) [6]: increased
expression of E-cadherin protein (Western Blot) [7]: significantly increased
expression of N-cadherin protein (Western Blot) [7]: significantly decreased
expression of Vimentin protein (Western Blot) [7]: significantly decreased
